Measured values: patent publication US6359176B1, “Cationic surfactants, process for producing the same and utilization thereof” (Matsumoto Yushi-Seiyaku Co., Ltd., priority 1999, dated 2002)

Experiments:
[1] = system: activated sludge; experiment: Biodegradability: degradation by microorganisms with degradation tester and closed system oxygen consumption meter; details: 14 days biodegradability test
Experimental: The biodegradability of the derivatives was determined by checking the degree of degradation of those chemicals by microorganisms (procedures defined in Japanese domestic low for regulation of chemical substances and in OECD) with a degradation tester and closed system oxygen consumption meter. The test was continued for 14 days and the biodegradability data was calculated into percentage.
The 100-% degradability in the testing means that whole of a test sample has been degraded into inorganic substances such as carbon dioxide.

[2] = Determination of craft point (temperature at which 1 wt % surfactant dissolves clearly, visual inspection); format: physicochemical; details: 1 weight % aqueous solution in pure water
Experimental: (§1) Determination of craft point, critical micelle concentration and surface tension
(§2) An aqueous solution of 1 weight % of a surfactant (solution with pure water) was prepared and the craft point, at which a surfactant dissolves clearly, was determined with visual inspection. And the aqueous solution of several surfactants with varied concentration was prepared with pure water and their surface tension at 25° C. was determined.

[3] = Determination of critical micelle concentration and surface tension of aqueous surfactant solutions; format: physicochemical; details: pure water, 25° C.; for Surface tension γ cmc (mN/m): at cmc
Experimental: as §1, §2

SMILES	Effect on activated sludge (in words) [1]	Craft point (1 wt %, ° C.) [2]	Critical micelle concentration cmc [3]	Surface tension γ cmc (mN/m) [3]
CCCCCCCCCCCCCCCC[N+](C)(C)C.[Br-] [Cetyl trimethyl ammonium bromide]	inhibited the propagation of activated sludge	–	–	–
CCCCCCCCCCCCCC(=O)OCC(O)C(O)C(O)C(O)C[N+](C)(C)C.[I-] (stereo not drawn) [Monomyristate derivative]	–	<0 °C	0.00034 mol/L	34.2 mN/m
CCCCCCCCCCCC(=O)OCC(O)C(O)C(O)C(O)C[N+](C)(C)C.[Cl-] (stereo not drawn) [Monolaurate derivative]	–	<0 °C	0.0012 mol/L	30.2 mN/m
CCCCCCCCCCCCCCCCCC(=O)OCC(O)C(O)C(O)C(O)C[N+](C)(C)C.[I-] (stereo not drawn) [Monostearate derivative]	–	40.5 °C	–	–
CCCCCCCCCCCCCCCC(=O)OCC(O)C(O)C(O)C(O)C[N+](C)(C)C.[Cl-] (stereo not drawn) [Monopalmitate derivative]	–	33.5 °C	–	–
